Assay results published in ChEMBL document CHEMBL1156471, “Targeting host cell furin proprotein convertases as a therapeutic strategy against bacterial toxins and viral pathogens” (J Biol Chem, 2007).
Non-standard residues stand in square brackets, D forms with d. Residues, ends and D or L forms follow the SMILES beside them. Sar = CNCC(=O)O

Biological target: Furin (Homo sapiens, UniProt P09958)
Sequence (P09958 whole entry): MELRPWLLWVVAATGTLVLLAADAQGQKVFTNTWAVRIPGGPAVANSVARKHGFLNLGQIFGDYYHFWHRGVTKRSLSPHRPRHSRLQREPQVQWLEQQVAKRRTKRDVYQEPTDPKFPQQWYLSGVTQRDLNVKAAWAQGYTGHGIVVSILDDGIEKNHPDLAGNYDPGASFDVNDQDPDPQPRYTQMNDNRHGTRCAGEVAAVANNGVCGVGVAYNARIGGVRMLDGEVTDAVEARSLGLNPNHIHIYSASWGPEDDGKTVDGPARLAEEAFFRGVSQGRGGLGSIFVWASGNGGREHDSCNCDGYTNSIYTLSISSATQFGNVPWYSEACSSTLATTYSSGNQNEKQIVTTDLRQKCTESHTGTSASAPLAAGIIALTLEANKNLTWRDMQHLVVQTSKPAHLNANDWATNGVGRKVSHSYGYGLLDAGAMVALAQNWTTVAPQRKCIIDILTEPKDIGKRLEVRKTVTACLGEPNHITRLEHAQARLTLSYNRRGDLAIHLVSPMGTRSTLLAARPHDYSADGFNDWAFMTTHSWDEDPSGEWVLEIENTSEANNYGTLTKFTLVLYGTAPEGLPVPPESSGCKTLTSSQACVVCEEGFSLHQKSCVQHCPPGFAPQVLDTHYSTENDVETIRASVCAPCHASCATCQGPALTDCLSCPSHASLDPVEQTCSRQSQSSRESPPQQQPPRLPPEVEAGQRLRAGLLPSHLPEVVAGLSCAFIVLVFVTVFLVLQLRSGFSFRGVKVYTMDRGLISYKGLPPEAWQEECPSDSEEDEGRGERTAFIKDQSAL

Compound	Ki
H-TPRERRAKKRV-OH	> 100 nM
C[C@H](NC(=O)[C@@H]1CCCN1C(=O)[C@@H](N)[C@@H](C)O)C(=O)N[C@@H](CCC(=O)O)C(=O)N[C@@H](CCCNC(=N)N)C(=O)N[C@@H](CCCNC(=N)N)C(=O)N[C@@H](CCCNC(=N)N)C(=O)N[C@@H](CCCCN)C(=O)N[C@@H](CCCCN)C(=O)N[C@@H](CCCNC(=N)N)C(=O)N(C)CC(=O)O (H-TPAERRRKKR[Sar]-OH)	> 100 nM
H-TPRERAAKKRV-OH	> 100 nM
C[C@@H](O)[C@H](N)C(=O)N1CCC[C@H]1C(=O)N[C@@H](CCC(N)=O)C(=O)N[C@@H](CCCNC(=N)N)C(=O)NC1(C(=O)N[C@@H](CCCNC(=N)N)C(=O)N[C@@H](CCCNC(=N)N)C(=O)N[C@@H](CCCNC(=N)N)C(=O)N[C@@H](CCCCN)C(=O)N[C@@H](CCCCN)C(=O)NC2(C(=O)NCC(=O)O)CCCC2)CCCC1	> 100 nM
C[C@H](NC(=O)[C@H](CCCCN)NC(=O)[C@H](CCCCN)NC(=O)[C@H](CCCN=C(N)N)NC(=O)[C@H](CCCN=C(N)N)NC(=O)[C@H](CCCN=C(N)N)NC(=O)[C@H](CCC(=O)O)NC(=O)[C@H](CCCN=C(N)N)NC(=O)[C@@H]1CCCN1C(=O)[C@@H](N)[C@@H](C)O)C(=O)N(C)CC(=O)O (H-TPRERRRKKA[Sar]-OH)	> 100 nM
H-TPRERRAAKRV-OH	> 100 nM
H-TPRERAAKKR-OH	> 100 nM
H-TPQRARRRKKRC-OH	> 100 nM
H-TPRARRRKKRK-OH	> 100 nM
C[C@@H](O)[C@H](N)C(=O)N1CCC[C@H]1C(=O)N[C@@H](CCC(N)=O)C(=O)N[C@@H](CCCN=C(N)N)C(=O)N[C@@H](CC1CCCCC1)C(=O)N[C@@H](CCCN=C(N)N)C(=O)N[C@@H](CCCN=C(N)N)C(=O)N[C@@H](CCCN=C(N)N)C(=O)N[C@@H](CCCCN)C(=O)N[C@@H](CCCCN)C(=O)N[C@@H](CCCNC(=N)N)C(=O)NCC(=O)O	> 100 nM
C[C@@H](O)[C@H](N)C(=O)N1CCC[C@H]1C(=O)N[C@@H](CCCNC(=N)N)C(=O)NCCCCCC(=O)N[C@@H](CCCNC(=N)N)C(=O)N[C@@H](CCCNC(=N)N)C(=O)N[C@@H](CCCNC(=N)N)C(=O)N[C@@H](CCCCN)C(=O)N[C@@H](CCCCN)C(=O)N[C@@H](CCCNC(=N)N)C(=O)NCC(=O)O	> 100 nM
H-AAAERRRKKRG-OH	> 100 nM
H-TAAERRRKKRV-OH	> 100 nM
H-TPRRRRRKKRG-NH2	> 100 nM
H-TPRAARRKKRG-OH	> 100 nM
H-TPRSRRRKKRG-NH2	> 100 nM
H-TPRFRRRKKRG-OH	> 100 nM
H-TPRSRRRKKRG-OH	> 100 nM
H-TPRMRRRKKRG-OH	> 100 nM
CC(C)C[C@H](NC(=O)[C@H](CCCN=C(N)N)NC(=O)[C@H](CCCCN)NC(=O)[C@H](CCCCN)NC(=O)[C@H](CCCN=C(N)N)NC(=O)[C@H](CCCN=C(N)N)NC(=O)[C@H](CCCN=C(N)N)NC(=O)[C@H](C)NC(=O)[C@H](CCCN=C(N)N)NC(=O)[C@@H]1CCCN1C(=O)[C@@H](N)[C@@H](C)O)C(=O)O	> 100 nM
H-TPQRQRRRKKRG-OH	> 100 nM
H-TPRDRRRKKRG-OH	> 100 nM
H-TPQRNRRRKKRG-OH	> 100 nM
H-TPRERRRAKRG-NH2	> 100 nM

Compound	Ki
C[C@H](NC(=O)[C@H](CCCN=C(N)N)NC(=O)[C@@H]1CCCN1C(=O)[C@@H](N)[C@@H](C)O)C(=O)N[C@@H](CCCN=C(N)N)C(=O)N[C@@H](CCCN=C(N)N)C(=O)N[C@@H](CCCN=C(N)N)C(=O)N[C@@H](CCCCN)C(=O)N[C@@H](CCCCN)C(=O)N[C@@H](CCCN=C(N)N)C(=O)N(C)CC(=O)O	> 100 nM
H-TPRERRRKKAG-NH2	> 100 nM
CC[C@H](NC(=O)[C@H](CCCNC(=N)N)NC(=O)[C@H](CCC(N)=O)NC(=O)[C@@H]1CCCN1C(=O)[C@@H](N)[C@@H](C)O)C(=O)N[C@@H](CCCNC(=N)N)C(=O)N[C@@H](CCCNC(=N)N)C(=O)N[C@@H](CCCNC(=N)N)C(=O)N[C@@H](CCCCN)C(=O)N[C@@H](CCCCN)C(=O)N[C@@H](CCCNC(=N)N)C(=O)NCC(=O)O	> 100 nM
C[C@H](NC(=O)[C@H](CCCN=C(N)N)NC(=O)[C@H](CCC(N)=O)NC(=O)[C@@H]1CCCN1C(=O)[C@@H](N)[C@@H](C)O)C(=O)N[C@@H](CCCN=C(N)N)C(=O)N[C@@H](CCCN=C(N)N)C(=O)N[C@@H](CCCN=C(N)N)C(=O)N[C@@H](CCCCN)C(=O)N[C@@H](CCCCN)C(=O)N[C@@H](CCCN=C(N)N)C(=O)N[C@@H](CCCN=C(N)N)C(=O)O	> 100 nM
H-GAGAGATPQRARRRKKRW-OH	127 nM
H-TARERRRKKRV-OH	> 100 nM
H-TPQRARRRKKRV-OH	48 nM
C[C@H](NC(=O)[C@H](CCCNC(=N)N)NC(=O)[C@@H]1CCCN1C(=O)[C@@H](N)[C@@H](C)O)C(=O)N[C@@H](CCCNC(=N)N)C(=O)N[C@@H](CCCNC(=N)N)C(=O)N[C@@H](CCCNC(=N)N)C(=O)N[C@@H](CCCCN)C(=O)N[C@@H](CCCCN)C(=O)N[C@@H](CCCNC(=N)N)C(=O)N[C@@H](CS)C(N)=O	> 100 nM
H-TPRERRRAKRG-OH	> 100 nM
H-TPRARRRKKRA-NH2	> 100 nM
H-TPQRARRRKKRP-OH	> 100 nM
H-TPRAARRKKRV-OH	> 100 nM
H-TPRARRRKKRQ-NH2	47 nM
H-TPRARRRKKRV-NH2	80 nM
C[C@H](NC(=O)[C@H](CCCNC(=N)N)NC(=O)[C@H](CCC(N)=O)NC(=O)[C@@H]1CCCN1C(=O)[C@@H](N)[C@@H](C)O)C(=O)N[C@@H](CCCNC(=N)N)C(=O)N[C@@H](CCCNC(=N)N)C(=O)N[C@@H](CCCNC(=N)N)C(=O)N[C@@H](CCCCN)C(=O)N[C@@H](CCCCN)C(=O)N[C@H](CCCNC(=N)N)C(=O)NCC(=O)O	> 100 nM
H-TPAERRRKKRG-OH	> 100 nM
H-TPREAARKKRV-OH	> 100 nM
H-TPRARRRKKRH-OH	> 100 nM
H-TPRARRRKKRE-NH2	> 100 nM
C[C@@H](O)[C@H](N)C(=O)N1CCC[C@H]1C(=O)N[C@@H](CCC(N)=O)C(=O)N[C@@H](CCCN=C(N)N)C(=O)N[C@H](CCC(=O)O)C(=O)N[C@@H](CCCN=C(N)N)C(=O)N[C@@H](CCCN=C(N)N)C(=O)N[C@@H](CCCN=C(N)N)C(=O)N[C@@H](CCCCN)C(=O)N[C@@H](CCCCN)C(=O)N[C@@H](CCCNC(=N)N)C(=O)NCC(=O)O	> 100 nM
H-TPQRARRRKKRQ-OH	> 100 nM
C[C@@H](O)[C@H](N)C(=O)N1CCC[C@H]1C(=O)N[C@@H](CCC(N)=O)C(=O)N[C@@H](CCCNC(=N)N)C(=O)N[C@@H](CCC(=O)O)C(=O)N[C@@H](CCCNC(=N)N)C(=O)N[C@@H](CCCNC(=N)N)C(=O)N[C@@H](CCCNC(=N)N)C(=O)N[C@@H](CCCCN)C(=O)N[C@@H](CCCCN)C(=O)N[C@@H](CCCNC(=N)N)C(=O)NCC(=O)O	> 100 nM
H-APRERRRKKRV-OH	> 100 nM
H-TPRPRRRKKRG-NH2	> 100 nM

Compound	Ki
H-TPRHRRRKKRG-OH	> 100 nM
H-TARERRRKKRG-OH	> 100 nM
H-TPAARRRKKRV-OH	> 100 nM
H-APRERRRKKRG-OH	> 100 nM
H-TPQRARRRKKRS-OH	> 100 nM
H-AARERRRKKR-OH	> 100 nM
H-GGGGGGTPRARRRKKRT-OH	66 nM
H-TPQRYRRRKKRG-OH	> 100 nM
H-TPRARRRKKRV-OH	80 nM
H-TPREAAAKKRV-OH	> 100 nM
H-TPRRRRRKKRG-OH	> 100 nM
C[C@@H](O)[C@H](N)C(=O)N1CCC[C@H]1C(=O)N[C@@H](CCC(N)=O)C(=O)N[C@@H](CCCN=C(N)N)C(=O)NC1(C(=O)N[C@@H](CCCN=C(N)N)C(=O)N[C@@H](CCCN=C(N)N)C(=O)N[C@@H](CCCN=C(N)N)C(=O)N[C@@H](CCCCN)C(=O)N[C@@H](CCCCN)C(=O)N[C@@H](CCCNC(=N)N)C(=O)NCC(=O)O)CCCC1	> 100 nM
C[C@@H](O)[C@H](N)C(=O)N1CCC[C@H]1C(=O)N[C@@H](CCCN=C(N)N)C(=O)NC1(C(=O)N[C@@H](CCCN=C(N)N)C(=O)N[C@@H](CCCN=C(N)N)C(=O)N[C@@H](CCCN=C(N)N)C(=O)N[C@@H](CCCCN)C(=O)N[C@@H](CCCCN)C(=O)N[C@@H](CCCN=C(N)N)C(=O)NCC(N)=O)CCCC1	> 100 nM
C[C@@H](O)[C@H](N)C(=O)N1CCC[C@H]1C(=O)N[C@@H](CCCNC(=N)N)C(=O)N[C@@H](CCC(=O)O)C(=O)N[C@@H](CCCNC(=N)N)C(=O)N[C@@H](CCCNC(=N)N)C(=O)N[C@@H](CCCNC(=N)N)C(=O)N[C@@H](CCCCN)C(=O)N[C@@H](CCCCN)C(=O)N[C@@H](CCCNC(=N)N)C(=O)N(C)CC(=O)O (H-TPRERRRKKR[Sar]-OH)	> 100 nM
C[C@H](NC(=O)[C@H](C)NC(=O)[C@H](CCCNC(=N)N)NC(=O)[C@H](CCCNC(=N)N)NC(=O)[C@H](CCCNC(=N)N)NC(=O)[C@H](CCC(=O)O)NC(=O)[C@H](CCCNC(=N)N)NC(=O)[C@@H]1CCCN1C(=O)[C@@H](N)[C@@H](C)O)C(=O)N[C@@H](CCCNC(=N)N)C(=O)NCC(=O)O	> 100 nM
H-TPRNRRRKKRG-NH2	> 100 nM
C[C@H](N)C(=O)N[C@@H](C)C(=O)N[C@@H](C)C(=O)N[C@@H](CCC(=O)O)C(=O)N[C@@H](CCCNC(=N)N)C(=O)N[C@@H](CCCNC(=N)N)C(=O)N[C@@H](CCCNC(=N)N)C(=O)N[C@@H](CCCCN)C(=O)N[C@@H](CCCCN)C(=O)N[C@@H](CCCNC(=N)N)C(=O)N(C)CC(=O)O (H-AAAERRRKKR[Sar]-OH)	> 100 nM
H-TPQRARRRKKRN-OH	> 100 nM
H-TPQRARRRKKRL-OH	> 100 nM
C[C@H](NC(=O)[C@H](C)NC(=O)[C@H](CCCNC(=N)N)NC(=O)[C@@H]1CCCN1C(=O)[C@@H](N)[C@@H](C)O)C(=O)N[C@@H](CCCNC(=N)N)C(=O)N[C@@H](CCCNC(=N)N)C(=O)N[C@@H](CCCCN)C(=O)N[C@@H](CCCCN)C(=O)N[C@@H](CCCNC(=N)N)C(=O)N(C)CC(=O)O (H-TPRAARRKKR[Sar]-OH)	> 100 nM
H-TPRARRRKKRG-OH	57 nM
H-TPRERARKKR-OH	> 100 nM
CSC[C@H](NC(=O)[C@H](CCCN=C(N)N)NC(=O)[C@H](CCCCN)NC(=O)[C@H](CCCCN)NC(=O)[C@H](CCCN=C(N)N)NC(=O)[C@H](CCCN=C(N)N)NC(=O)[C@H](CCCN=C(N)N)NC(=O)[C@H](C)NC(=O)[C@H](CCCN=C(N)N)NC(=O)[C@@H]1CCCN1C(=O)[C@@H](N)[C@@H](C)O)C(=O)O	65 nM
